The text below walks through data of US11965159B2, “Compositions and methods for regulating proteins and nucleic acids activities” (THE BROAD INSTITUTE, INC., priority 2019, dated 2024).

Each structure is given as a SMILES string.

In one data set the test system is U2OS.eGFP.PEST cells. Briefly: Cell viability assay (ATP content) of U2OS.eGFP.PEST cells. In kind it is cell-based, human. Particulars: for cytotoxicity (ATP content) in secondary screen: 20 μM compounds, 48 h; for cellular ATP-levels: U2OS cells, up to 20 μM, 24 h. The method, then: FIG. 14—Cell viability assay (ATP content) of U2OS.eGPF.PEST cells in the presence of compounds. Measurement of ATP content of U2OS.eGFP.PEST cells upon incubating with 20 μM compounds for 48 h. Error bars represent ±S.D. from technical replicates (n=3).
FIG. 22—Cell viability assay (ATP content) of U2OS.eGFP.PEST cells in the presence of compounds. Measurement ATP content of U2OS.eGFP.PEST cells upon incubating with BRD7087 and BRD5779 (5-20 μM) for 24 h. Error bars represent ±S.D. from technical replicates (n=3).
FIG. 58. Cell viability assay (ATP content) of U2OS.eGFP.PEST cells in the presence of compounds. Measurement of ATP content of U2OS.eGFP.PEST cells upon incubating with 20 μM compound for 48 h. Error bars represent±S.D. from technical replicates (n=3).
FIG. 66. Cell viability assay (ATP content) of U2OS.eGFP.PEST cells in the presence of compounds. Measurement of ATP content of U2OS.eGFP.PEST cells upon incubating with BRD7087 and BRD5779 (5-20 μM) for 24 h. Error bars represent ±S.D. from technical replicates (n=3).

In a further data set the test system is S. aureus RN4220. Kind of data set: Toxicity study of compounds in bacterial culture (absence of phage). In kind it is cell-based. Particulars: 20 μM, 16 h, no phage. The protocol: FIG. 79. Toxicity study of compounds in bacterial culture. Bacterial growth study in the presence of the compound. Bacterial cell S. aureus RN4220 strain was allowed to grow either in the presence of DMSO or 20 μM of compound BRD7087 or BRD5779 over 16 h. The experiment was performed in three technical replicates.
Bacterial study. Plasmid pRH248 harboring SpCas9, tracrRNA and a single-spacer array ([…]) (SEQ ID NO:7) targeting phage DNM474 was constructed via BsaI cloning onto pDB114 as described in Heler et al 6. Plate reader growth curves of bacteria infected with phage were conducted as described previously with minor modifications 7. Overnight cultures were diluted 1:100 into 2 ml of fresh BHI supplemented with appropriate antibiotics and 5 mM CaCl2) and grown to an OD600 of ˜0.2. Immune cells carrying pRH248 were diluted with cells lacking CRISPR-Cas in a 1:10,000 ratio. […] To produce plate reader growth curves, 200 μL of infected cultures, normalized for OD600, were transferred to a 96-well plate in triplicate. […]
Bacterial study. […] Plate reader growth curves of bacteria infected with phage were conducted as described previously with minor modifications^7. […] To produce plate reader growth curves, 200 μL of infected cultures, normalized for OD600, were transferred to a 96-well plate in triplicate. […]

`OC[C@H]1Nc2ccc(-c3cccc(F)c3)cc2[C@H]2[C@@H]1CCN2Cc1ccncc1` [BRD7087, ((3aR,4S,9bR)-8-(3-Fluorophenyl)-1-(pyridin-4-ylmethyl)-2,3,3a,4,5,9b-hexahydro-1H-pyrrolo[3,2-c]quinolin-4-yl)methanol]: in the data set with U2OS.eGFP.PEST cells, the “cytotoxicity (ATP content) in secondary screen” value is given as “non-toxic” and the “cellular ATP-levels” value is “did not significantly alter”. Moreover, the “toxicity to bacteria in the presence of inhibitor alone” value with S. aureus RN4220 is on record as “non-toxic in the absence of phage”.
For `COc1ccc(-c2ccc3c(c2)[C@H]2[C@H](CCN2Cc2ccncc2)[C@@H](CO)N3)cc1` [BRD5779, ((3aR,4S,9bR)-8-(4-Methoxyphenyl)-1-(pyridin-4-ylmethyl)-2,3,3a,4,5,9b-hexahydro-1H-pyrrolo[3,2-c]quinolin-4-yl)methanol] the same measures were “non-toxic”, “did not significantly alter” and “non-toxic in the absence of phage”.
